The text below walks through data of patent US12435061B2 (priority 2020, dated 2025).

Like-named read-outs stand apart in the source and are kept apart here.

The experiment addresses hTRPV3 (Homo sapiens (Human), UniProt Q8NET8). In words: Whole-cell patch clamp, hTRPV3 Phase 1 / Phase 2 currents. It is filed as cell-based. In a few lines: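 Currents are activated by 20 μM 2-APB or by perfusate at 28 °C or warmer, in Ringer's solution, and quantified at ±80 mV.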
Setting [1] is: Phase 1 current, inward, whole-cell patch clamp, read-out: hTRPV3 Patch P1 Inwd.
Setting [2] is: Phase 1 current, read-out: hTRPV3 (nM) (Phase 1).
Setting [3] is: Phase 2 current, inward, whole-cell patch clamp, read-out: hTRPV3 Patch P2 Inwd.
The mark [4] stands for this setting: Phase 2 current, read-out: hTRPV3 (nM) (Phase 2).

Sequence of hTRPV3 (Q8NET8 whole entry): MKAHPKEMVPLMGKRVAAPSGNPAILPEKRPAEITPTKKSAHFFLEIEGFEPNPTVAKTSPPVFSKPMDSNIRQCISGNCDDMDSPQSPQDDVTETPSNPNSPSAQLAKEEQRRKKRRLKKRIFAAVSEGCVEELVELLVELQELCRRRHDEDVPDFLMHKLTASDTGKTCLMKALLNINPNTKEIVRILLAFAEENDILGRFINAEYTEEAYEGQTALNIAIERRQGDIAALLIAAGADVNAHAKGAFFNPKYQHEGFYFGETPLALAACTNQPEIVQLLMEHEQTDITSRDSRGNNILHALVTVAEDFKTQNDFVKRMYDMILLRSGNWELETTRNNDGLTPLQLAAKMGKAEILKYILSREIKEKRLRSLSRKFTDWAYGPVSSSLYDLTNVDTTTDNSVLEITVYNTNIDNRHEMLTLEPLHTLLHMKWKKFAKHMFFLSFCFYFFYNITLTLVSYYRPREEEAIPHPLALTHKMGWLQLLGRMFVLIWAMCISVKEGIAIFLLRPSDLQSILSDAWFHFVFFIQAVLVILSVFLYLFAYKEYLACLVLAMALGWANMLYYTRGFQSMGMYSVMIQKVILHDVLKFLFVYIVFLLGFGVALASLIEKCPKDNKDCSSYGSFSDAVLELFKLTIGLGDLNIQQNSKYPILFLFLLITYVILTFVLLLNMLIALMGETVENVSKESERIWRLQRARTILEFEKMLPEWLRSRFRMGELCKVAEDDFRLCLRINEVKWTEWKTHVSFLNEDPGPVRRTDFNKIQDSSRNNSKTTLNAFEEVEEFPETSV

In the case of `O=C(c1ccc(Cl)cc1)c1ccc(N2CC[C@H](Oc3ncccc3Cl)C2)c(CO)c1` [Compound 1-288, (S)-(4-chlorophenyl)(4-(3-(3-chloropyridin-2-yloxy)pyrrolidin-1-yl)-3-(hydroxymethyl)phenyl)methanone], the IC50 under setting [1] is 10 to 100 nM.
For the compound `COCc1ccc(C(O)c2ccc(N3CC[C@H](Oc4ncccc4Cl)C3)c(CO)c2)cc1` (stereo partly drawn) [Compound 1-290, (4-((S)-3-(3-chloropyridin-2-yloxy)pyrrolidin-1-yl)-3-(hydroxymethyl)phenyl)(4-(methoxymethyl)phenyl)methanol], the IC50 reads like this: under setting [1], over 1000 nM; under setting [2], over 3200 nM; under setting [3], over 1000 nM; under setting [4], over 3200 nM.
Turning to `O=C(c1ccc(Cl)cc1)c1ccc(N2CC[C@H](Oc3ncccc3Cl)C2)c(CCO)c1` [Compound 1-291, (S)-(4-chlorophenyl)(4-(3-(3-chloropyridin-2-yloxy)pyrrolidin-1-yl)-3-(2-hydroxyethyl)phenyl)methanone], the IC50 runs as follows: under setting [1], 100 to 1000 nM; under setting [2], about 188 nM; under setting [3], 100 to 1000 nM; under setting [4], about 217 nM.
For the compound `OCCc1cc(C(O)c2ccc(Cl)cc2)ccc1N1CC[C@H](Oc2ncccc2Cl)C1` (stereo partly drawn) [Compound 1-292, 2-(5-((4-chlorophenyl)(hydroxy)methyl)-2-((S)-3-(3-chloropyridin-2-yloxy)pyrrolidin-1-yl)phenyl)ethanol], the IC50 by setting is: under setting [1], over 1000 nM; under setting [2], about 4900 nM; under setting [3], over 1000 nM; under setting [4], about 5100 nM.
In the case of `O=C(c1ccc(F)cc1)c1ccc(N2CC[C@H](Oc3ncccc3F)C2)c(CO)c1` [Compound 1-293, (S)-(4-fluorophenyl)(4-(3-(3-fluoropyridin-2-yloxy)pyrrolidin-1-yl)-3-(hydroxymethyl)phenyl)methanone], the IC50 is 100 to 1000 nM under setting [1], 329 nM under setting [2], 100 to 1000 nM under setting [3] and 322 nM under setting [4].
On to `O=C(c1ccc(F)cc1)c1ccc(N2CC[C@H](Oc3ncccc3Cl)C2)c(CCO)c1` [Compound 1-294, (S)-(4-(3-(3-chloropyridin-2-yloxy)pyrrolidin-1-yl)-3-(2-hydroxyethyl)phenyl)(4-fluorophenyl)methanone], for which the IC50 is, setting by setting: under setting [1], 100 to 1000 nM; under setting [2], 511 nM; under setting [3], 100 to 1000 nM; under setting [4], 502 nM.
For `Cc1ccc(C(=O)c2ccc(N3CC[C@H](Oc4ncccc4Cl)C3)c(CCO)c2)cc1` [Compound 1-295, (S)-(4-(3-(3-chloropyridin-2-yloxy)pyrrolidin-1-yl)-3-(2-hydroxyethyl)phenyl)(p-tolyl)methanone], the IC50 is, setting by setting: under setting [1], 100 to 1000 nM; under setting [2], about 225 nM; under setting [3], 100 to 1000 nM; under setting [4], about 178 nM.
As to `OCCc1cc(C(O)c2ccc(F)cc2)ccc1N1CC[C@H](Oc2ncccc2Cl)C1` (stereo partly drawn) [Compound 1-296, 2-(2-((S)-3-(3-chloropyridin-2-yloxy)pyrrolidin-1-yl)-5-((4-fluorophenyl)(hydroxy)methyl)phenyl)ethanol], the IC50 reads like this: under setting [1], over 1000 nM; under setting [2], 1070 nM; under setting [3], over 1000 nM; under setting [4], 2160 nM.
As for `OCc1cc(Oc2ccccc2F)ccc1N1CC[C@H](Oc2ncccc2F)C1` [Compound 1-298, (S)-(5-(2-fluorophenoxy)-2-(3-(3-fluoropyridin-2-yloxy)pyrrolidin-1-yl)phenyl)methanol], the IC50 is 10 to 100 nM under setting [1], 65.7 nM under setting [2], 10 to 100 nM under setting [3] and 52.9 nM under setting [4].
As to `CC(C)(C)OC(=O)N1CC=C(c2ccc(N3CC[C@H](Oc4ccc(C(F)(F)F)cn4)C3)c(CCO)c2)CC1` [Compound 1-299, (S)-tert-butyl 4-(3-(2-hydroxyethyl)-4-(3-(5-(trifluoromethyl)pyridin-2-yloxy)pyrrolidin-1-yl)phenyl)-5,6-dihydropyridine-1 (2H)-carboxylate], the IC50 by setting is: under setting [1], over 1000 nM; under setting [2], over 3200 nM.
The like results for `Cc1ccc(C(=O)c2ccc(N3CC[C@H](Oc4ncccc4F)C3)c(CO)c2)cc1` [Compound 1-300, (S)-(4-(3-(3-fluoropyridin-2-yloxy)pyrrolidin-1-yl)-3-(hydroxymethyl)phenyl)(p-tolyl)methanone] were, in that order, 100 to 1000 nM and 860 nM.
The like results for `CC(C)(C)OC(=O)N1CCC(c2ccc(N3CC[C@H](Oc4ccc(C(F)(F)F)cn4)C3)c(CCO)c2)CC1` [Compound 1-301, (S)-tert-butyl 4-(3-(2-hydroxyethyl)-4-(3-(5-(trifluoromethyl)pyridin-2-yloxy)pyrrolidin-1-yl)phenyl)piperidine-1-carboxylate] were, in that order, over 1000 nM and about 2980 nM.
For the compound `COc1ccc(Oc2ccc(N3CC[C@H](Oc4ccccn4)C3)c(CO)c2)cc1` [Compound 1-302], the IC50 is, setting by setting: under setting [1], 100 to 1000 nM; under setting [2], 282 nM.
On to `OCc1cc(Oc2ccc(Cl)c(C(F)(F)F)c2)ccc1N1CC[C@H](Oc2ccccn2)C1` [Compound 1-303], for which the IC50 under setting [1] was in the range of 10 to 100 nM and the IC50 under setting [2] worked out at 56.3 nM.
Turning to `N#Cc1cc(Br)ccc1N1CC[C@H](Oc2ncccc2Cl)C1` [Compound 1-305], the IC50 under setting [1] was over 1000 nM.
`CC(=O)c1ccc(Oc2ccc(N3CC[C@H](Oc4ccccn4)C3)c(CO)c2)c(F)c1` [Compound 1-306]: the IC50 under setting [1] is 100 to 1000 nM, the IC50 under setting [2] came out at 982 nM, the IC50 under setting [3] fell in the range of 100 to 1000 nM and the IC50 under setting [4] came to 735 nM.
Consider `OCc1cc(Oc2cccc(OC(F)(F)F)c2)ccc1N1CC[C@H](Oc2ccccn2)C1` [Compound 1-307], for which the IC50 runs as follows: under setting [1], 10 to 100 nM; under setting [2], about 59.5 nM.
With `CCc1ccccc1Oc1ccc(N2CC[C@H](Oc3ncccc3Cl)C2)c(C#N)c1` [Compound 1-308], the IC50 is over 1000 nM under setting [1] and over 3200 nM under setting [2].
Take `Cc1ccc(C(=O)c2ccc(N3CC[C@H](Oc4ncccc4F)C3)c(CCO)c2)cc1` [Compound 1-309, (S)-(4-(3-(3-fluoropyridin-2-yloxy)pyrrolidin-1-yl)-3-(2-hydroxyethyl)phenyl)(p-tolyl)methanone]: the IC50 is over 1000 nM under setting [1], about 2080 nM under setting [2], 100 to 1000 nM under setting [3] and 822 nM under setting [4].
Take `Cc1ccc(C(O)c2ccc(N3CC[C@H](Oc4ncccc4Cl)C3)c(CCO)c2)cc1` (stereo partly drawn) [Compound 1-310, 2-(2-((S)-3-(3-chloropyridin-2-yloxy)pyrrolidin-1-yl)-5-(hydroxy(p-tolyl)methyl)phenyl)ethanol]: the IC50 runs as follows: under setting [1], over 1000 nM; under setting [2], 4200 nM.
In the same order, the values of `O=C(c1cccc(F)c1)c1ccc(N2CC[C@H](Oc3ncccc3Cl)C2)c(CCO)c1` [Compound 1-311, (S)-(4-(3-(3-chloropyridin-2-yloxy)pyrrolidin-1-yl)-3-(2-hydroxyethyl)phenyl)(3-fluorophenyl)methanone] are 100 to 1000 nM and 417 nM.
For `OCCc1cc(C(O)c2cccc(F)c2)ccc1N1CC[C@H](Oc2ncccc2Cl)C1` (stereo partly drawn) [Compound 1-312, 2-(2-((S)-3-(3-chloropyridin-2-yloxy)pyrrolidin-1-yl)-5-((3-fluorophenyl)(hydroxy)methyl)phenyl)ethanol], the IC50 is, setting by setting: under setting [1], over 1000 nM; under setting [2], about 1920 nM.
Consider `O=C(c1cccc(Cl)c1)c1ccc(CCO)c(N2CC[C@H](Oc3ncccc3Cl)C2)c1` [Compound 1-314, (S)-(3-chlorophenyl)(3-(3-(3-chloropyridin-2-yloxy)pyrrolidin-1-yl)-4-(2-hydroxyethyl)phenyl)methanone], for which the IC50 under setting [1] is 100 to 1000 nM, the IC50 under setting [2] was 229 nM, the IC50 under setting [3] is 100 to 1000 nM and the IC50 under setting [4] is 307 nM.
In the case of `O=C(c1ccc(F)cc1)c1ccc(N2CC[C@H](Oc3ncccc3Cl)C2)c(CCO)c1` [Compound 1-315, (S)-(4-(3-(3-chloropyridin-2-yloxy)pyrrolidin-1-yl)-3-(2-hydroxyethyl)phenyl)(4-fluorophenyl)methanone], the IC50 under setting [1] is over 1000 nM and the IC50 under setting [2] is 1260 nM.
`O=C(Nc1ccc(F)cc1)c1ccc(N2CC[C@H](Oc3ncccc3Cl)C2)c(CCO)c1` [Compound 1-319, (S)-4-(3-(3-chloropyridin-2-yloxy)pyrrolidin-1-yl)-N-(4-fluorophenyl)-3-(2-hydroxyethyl)benzamide]: the IC50 under setting [1] is over 1000 nM and the IC50 under setting [2] worked out at 3440 nM.
The like results for `O=C(Nc1ccccc1)c1ccc(N2CC[C@H](Oc3ncccc3Cl)C2)c(CCO)c1` [Compound 1-320, (S)-4-(3-(3-chloropyridin-2-yloxy)pyrrolidin-1-yl)-3-(2-hydroxyethyl)-N-phenylbenzamide] were, in that order, over 1000 nM and about 4660 nM.
Turning to `OCc1nc(-c2ccccc2)ccc1N1C[C@@H](O)[C@H](Oc2ccc(C(F)(F)F)cn2)C1` [Compound 1-323], the IC50 under setting [1] is over 1000 nM and the IC50 under setting [2] stood at 3610 nM.
Take `CCc1ccccc1Oc1ccc(N2CC[C@H](Oc3ncccc3Cl)C2)c(C(N)=O)c1` [Compound 1-324]: under “Phase 1 current”, the “hTRPV3 (nM) (Phase 1)” value is recorded as “Incomplete Block (Phase 1)”.
Still for that read-out and setting: for `CC(C)c1ccc(Oc2ccc(N3CC[C@H](Oc4ccccn4)C3)c(CO)c2)cc1` [Compound 1-325] the value was “Incomplete Block (Phase 1)”.
For the compound `CC(O)c1cc(F)ccc1Oc1ccc(N2CC[C@H](Oc3ccccn3)C2)c(CO)c1` (stereo partly shown) [Compound 1-326], the IC50 runs as follows: under setting [1], over 1000 nM; under setting [2], 1470 nM; under setting [3], 100 to 1000 nM; under setting [4], 575 nM.
With `O=C(c1cccc(Cl)c1)c1ccc(N2CC[C@H](Oc3ncccc3Cl)C2)c(CCO)c1` [Compound 1-328, (S)-(3-chlorophenyl)(4-(3-(3-chloropyridin-2-yloxy)pyrrolidin-1-yl)-3-(2-hydroxyethyl)phenyl)methanone], the IC50 by setting is: under setting [1], 100 to 1000 nM; under setting [2], 615 nM.
